These results are taken from ChEMBL document CHEMBL5223189, “Discovery of Selective Aldehyde Dehydrogenase Inhibitors for the Treatment of Cancer” (ACS Med Chem Lett, 2023).

In assay [1] the target is T1, Aldehyde dehydrogenase, mitochondrial (Homo sapiens, UniProt P05091).
T1 sequence (P05091 whole entry): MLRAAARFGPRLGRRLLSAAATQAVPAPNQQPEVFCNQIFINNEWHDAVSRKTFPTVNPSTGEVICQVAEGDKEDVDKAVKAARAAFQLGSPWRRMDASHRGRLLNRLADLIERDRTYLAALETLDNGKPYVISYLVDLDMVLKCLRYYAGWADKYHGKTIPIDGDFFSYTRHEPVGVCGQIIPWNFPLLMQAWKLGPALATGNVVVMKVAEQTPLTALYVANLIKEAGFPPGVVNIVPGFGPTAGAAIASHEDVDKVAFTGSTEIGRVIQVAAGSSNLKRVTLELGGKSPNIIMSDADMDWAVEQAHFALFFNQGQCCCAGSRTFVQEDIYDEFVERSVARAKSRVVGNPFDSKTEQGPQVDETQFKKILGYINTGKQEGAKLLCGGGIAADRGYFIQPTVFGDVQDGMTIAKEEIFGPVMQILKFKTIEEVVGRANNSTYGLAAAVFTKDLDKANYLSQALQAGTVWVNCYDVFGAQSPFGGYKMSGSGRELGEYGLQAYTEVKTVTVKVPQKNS
Description: Inhibition of full length human ALDH2 using propionaldehyde as substrate preincubated for 30 mins followed by substrate addition and measured after 30 mins in presence of NAD by luminescence microplate reader analysis.

Assay [2] has as its target T2, Retinaldehyde dehydrogenase 3 (Homo sapiens, UniProt P47895).
T2 sequence (P47895 whole entry): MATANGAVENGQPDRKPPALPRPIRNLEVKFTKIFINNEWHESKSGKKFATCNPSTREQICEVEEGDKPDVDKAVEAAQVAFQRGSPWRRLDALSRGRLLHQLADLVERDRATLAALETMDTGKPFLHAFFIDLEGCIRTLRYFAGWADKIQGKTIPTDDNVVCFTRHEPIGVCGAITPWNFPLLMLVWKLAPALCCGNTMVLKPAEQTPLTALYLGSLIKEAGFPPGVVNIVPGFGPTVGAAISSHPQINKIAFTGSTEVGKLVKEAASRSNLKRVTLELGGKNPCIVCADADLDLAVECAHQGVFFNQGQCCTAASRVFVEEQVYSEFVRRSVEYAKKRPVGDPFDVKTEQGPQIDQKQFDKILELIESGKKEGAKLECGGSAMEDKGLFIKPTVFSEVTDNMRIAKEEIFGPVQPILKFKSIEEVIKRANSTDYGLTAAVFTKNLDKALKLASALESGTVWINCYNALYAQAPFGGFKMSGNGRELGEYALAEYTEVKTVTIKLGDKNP
Description: Inhibition of full length human ALDH1A3 using propionaldehyde as substrate preincubated for 30 mins followed by substrate addition and measured after 30 mins in presence of NAD by luminescence microplate reader analysis.

In assay [3] the target is T2, Retinaldehyde dehydrogenase 3. Description: Inhibition of human ALDH1A3 in human WM266-4 cells incubated for 60 mins using BODIPY-aminoacetaldehyde as substrate in presence of ALDEFLUOR assay buffer by Hoechst 33342 staining based cell Insight fluorescent microscopic anlaysis.
In assay [4] the target is T3, Aldehyde dehydrogenase 1A1 (Homo sapiens, UniProt P00352).
T3 sequence (P00352 whole entry): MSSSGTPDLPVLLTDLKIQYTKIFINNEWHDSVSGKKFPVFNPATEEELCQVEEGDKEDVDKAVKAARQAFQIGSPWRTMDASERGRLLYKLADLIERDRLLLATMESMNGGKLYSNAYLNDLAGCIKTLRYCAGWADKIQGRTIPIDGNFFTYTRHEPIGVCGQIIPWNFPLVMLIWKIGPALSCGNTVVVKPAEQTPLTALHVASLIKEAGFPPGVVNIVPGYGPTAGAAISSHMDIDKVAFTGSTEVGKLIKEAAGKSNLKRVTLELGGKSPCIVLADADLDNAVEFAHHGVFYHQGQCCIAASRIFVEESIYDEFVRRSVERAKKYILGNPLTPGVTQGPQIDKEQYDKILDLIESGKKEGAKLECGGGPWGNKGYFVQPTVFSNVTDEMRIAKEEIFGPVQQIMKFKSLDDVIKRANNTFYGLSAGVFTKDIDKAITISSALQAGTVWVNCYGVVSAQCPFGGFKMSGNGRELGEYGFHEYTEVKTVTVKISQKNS
Description: Inhibition of full length human ALDH1A1 using propionaldehyde as substrate preincubated for 30 mins followed by substrate addition and measured after 30 mins in presence of NAD by luminescence microplate reader analysis.

The target of the next assay is T4, Retinal dehydrogenase 2 (Homo sapiens, UniProt O94788).
T4 sequence (O94788 whole entry): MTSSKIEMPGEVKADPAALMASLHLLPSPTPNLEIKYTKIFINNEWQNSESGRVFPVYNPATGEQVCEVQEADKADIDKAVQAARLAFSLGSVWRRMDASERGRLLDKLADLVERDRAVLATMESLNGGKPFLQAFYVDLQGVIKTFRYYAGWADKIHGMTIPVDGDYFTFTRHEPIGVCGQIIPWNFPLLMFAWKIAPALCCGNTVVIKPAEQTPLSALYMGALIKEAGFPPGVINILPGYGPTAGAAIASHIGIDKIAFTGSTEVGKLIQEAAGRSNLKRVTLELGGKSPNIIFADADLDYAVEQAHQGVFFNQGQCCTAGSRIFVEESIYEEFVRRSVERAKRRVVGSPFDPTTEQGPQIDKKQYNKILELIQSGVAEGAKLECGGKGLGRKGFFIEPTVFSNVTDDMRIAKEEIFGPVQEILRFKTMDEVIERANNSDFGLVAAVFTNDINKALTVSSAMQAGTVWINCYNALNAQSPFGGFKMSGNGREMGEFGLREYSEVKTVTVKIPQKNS
Description: Inhibition of full length human ALDH1A2 using propionaldehyde as substrate preincubated for 30 mins followed by substrate addition and measured after 30 mins in presence of NAD by luminescence microplate reader analysis.

On to `O=C1CCc2cc(OCCN3CCC[C@@H]3c3cccc(F)c3)ccc2N1`, for which the IC50 – broadly, the concentration that inhibits the measured activity by half – in assay [1] is at least 100 µM; in assay [2] it was under 100 nM; in assay [3] it was under 100 nM; in assay [4], at least 100 µM; on Retinal dehydrogenase 2, 100 nM.
With `CN(C)c1nc(-c2cccc(F)c2)c(C(=O)Nc2ccc3c(c2)CCC(=O)N3)s1`, the IC50 in assay [1] is at least 100 µM; in assay [2], under 100 nM; in assay [3] it was under 100 nM; in assay [4] it was at least 100 µM; at Retinal dehydrogenase 2 it was 1000 nM.
Regarding `O=C1CCc2cc(NC(=O)c3scnc3-c3cccc(F)c3)ccc2N1`, the IC50 in assay [1] was at least 100 µM; in assay [2] it was under 100 nM; in assay [3], under 100 nM; in assay [4], at least 100 µM; at Retinal dehydrogenase 2 it was 1000 nM.
On to `O=C1CCc2cc(NC(=O)c3sc(N4CC(O)C4)nc3-c3cccc(F)c3)ccc2N1`, for which the IC50 in assay [1] was at least 100 µM; in assay [2], under 100 nM; in assay [3], under 100 nM; in assay [4], at least 100 µM; at Retinal dehydrogenase 2 it was at least 100000 nM.
In the case of `O=C1CCc2cc(OCCN3CCCC3c3cccc(F)c3)ccc2N1` (stereo not given), the IC50 in assay [1] was at least 100 µM; in assay [2], under 100 nM; in assay [3], under 100 nM; in assay [4], at least 100 µM; at Retinal dehydrogenase 2 it was 100 nM.
Turning to `O=C1CCc2cc(NC(=O)c3sc(N4CCOCC4)nc3-c3cccc(F)c3)ccc2N1`, the IC50 was at least 100 µM in assay [1]; under 100 nM in assay [2]; under 100 nM in assay [3]; at least 100 µM in assay [4]; at least 100000 nM on Retinal dehydrogenase 2.
Take `O=C1CCc2cc(NC(=O)c3sc(N4CCNCC4)nc3-c3cccc(F)c3)ccc2N1`: the IC50 is at least 100 µM in assay [1]; under 100 nM in assay [2]; under 100 nM in assay [3]; at least 100 µM in assay [4]; 10000 nM at Retinal dehydrogenase 2.
As to `O=C1CCc2cc(NC(=O)c3scnc3-c3ccccc3F)ccc2N1`, the IC50 in assay [1] is at least 100 µM; in assay [2], under 100 nM; in assay [3], under 100 nM; in assay [4], at least 100 µM; on Retinal dehydrogenase 2 it was 1000 nM.
